Reference: EP0025842B1, “Peptides, process for their preparation, their pharmaceutical compositions and their intermediates” (FUJISAWA PHARMACEUTICAL CO., LTD., priority 1979, dated 1987)

How the values were obtained:
mice = assay: Acute toxicity in mice; format: in vivo; conditions: 1 g/kg (i.v.)
Source text: 7. Acute toxicity in mice of FR-900156 1 g/kg (i.v.): no toxicity

mouse L cell = assay: Cell toxicity (mouse L cell); format: cell-based; conditions: 500 µg/ml

C[C@H](NC(=O)[C@@H](C)O)C(=O)N[C@H](CCC(=O)N[C@@H](CCC[C@@H](N)C(=O)O)C(=O)NCC(=O)O)C(=O)O [FR-900156, D-Lactyl-L-alanyl-γ-D-glutamyl-(L)-mesodiaminopimelyl(L)-glycine]
Acute toxicity in mice (mice): no toxicity | Cell toxicity (mouse L cell) (mouse L cell): no toxic effect
